# Measurements as given in ChEMBL document CHEMBL4823294, “Discovery of cinnoline derivatives as potent PI3K inhibitors with antiproliferative activity” (Bioorg Med Chem Lett, 2021).
# Calls of active or inactive are those of the source. The calls are words filed in the database; no cut-off is given here.
# How the values were obtained:
# [1] = molecular target: Phosphatidylinositol 4,5-bisphosphate 3-kinase catalytic subunit alpha isoform (Homo sapiens, UniProt P42336); experiment: Inhibition of PI3Kalpha (unknown origin)
# [2] = molecular target: Phosphatidylinositol 4,5-bisphosphate 3-kinase catalytic subunit beta isoform (Homo sapiens, UniProt P42338); experiment: Inhibition of PI3Kbeta (unknown origin)
# [3] = molecular target: Phosphatidylinositol 4,5-bisphosphate 3-kinase catalytic subunit gamma isoform (Homo sapiens, UniProt P48736); experiment: Inhibition of PI3Kgamma (unknown origin)
# [4] = molecular target: T1, Phosphatidylinositol 4,5-bisphosphate 3-kinase catalytic subunit delta isoform (Homo sapiens, UniProt O00329); experiment: Inhibition of PI3Kdelta (unknown origin)
# T1 sequence (O00329 whole entry): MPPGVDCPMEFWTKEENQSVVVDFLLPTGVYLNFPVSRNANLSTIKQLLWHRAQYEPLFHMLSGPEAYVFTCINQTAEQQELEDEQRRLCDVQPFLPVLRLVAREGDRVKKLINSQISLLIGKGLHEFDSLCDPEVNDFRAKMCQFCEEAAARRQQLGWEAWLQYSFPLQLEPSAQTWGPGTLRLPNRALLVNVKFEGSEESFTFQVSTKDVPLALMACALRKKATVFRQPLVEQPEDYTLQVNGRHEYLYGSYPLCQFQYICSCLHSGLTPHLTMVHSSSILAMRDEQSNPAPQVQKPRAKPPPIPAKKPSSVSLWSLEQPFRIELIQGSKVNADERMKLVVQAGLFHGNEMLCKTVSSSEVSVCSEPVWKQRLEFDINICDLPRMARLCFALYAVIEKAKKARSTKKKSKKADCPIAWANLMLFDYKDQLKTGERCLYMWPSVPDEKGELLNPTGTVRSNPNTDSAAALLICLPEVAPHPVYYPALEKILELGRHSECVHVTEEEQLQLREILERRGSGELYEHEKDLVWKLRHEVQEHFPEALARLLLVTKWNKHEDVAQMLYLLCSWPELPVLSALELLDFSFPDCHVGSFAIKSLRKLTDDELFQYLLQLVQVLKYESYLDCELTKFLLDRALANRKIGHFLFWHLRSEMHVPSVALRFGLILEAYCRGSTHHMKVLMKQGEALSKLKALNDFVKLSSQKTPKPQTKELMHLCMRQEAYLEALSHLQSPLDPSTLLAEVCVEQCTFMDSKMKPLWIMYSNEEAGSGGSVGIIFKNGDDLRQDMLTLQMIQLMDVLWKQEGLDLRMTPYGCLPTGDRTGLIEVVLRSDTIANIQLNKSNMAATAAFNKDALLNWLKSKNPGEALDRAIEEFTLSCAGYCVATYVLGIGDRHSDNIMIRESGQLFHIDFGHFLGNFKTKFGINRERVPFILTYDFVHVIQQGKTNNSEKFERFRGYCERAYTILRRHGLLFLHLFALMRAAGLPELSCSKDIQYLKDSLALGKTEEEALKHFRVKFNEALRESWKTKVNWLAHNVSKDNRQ
# A549 = experiment: Antiproliferative activity against human A549 cells; assay type: functional, cell-based
# HeLa = experiment: Antiproliferative activity against human HeLa cells; assay type: functional, cell-based
# MCF7 = experiment: Antiproliferative activity against human MCF7 cells; assay type: functional, cell-based
# HL-60 = experiment: Antiproliferative activity against human HL-60 cells; assay type: functional, cell-based
# HepG2 = experiment: Antiproliferative activity against human HepG2 cells; assay type: functional, cell-based
# U-87 MG [5] = experiment: Antiproliferative activity against human U-87 MG cells; assay type: functional, cell-based, U-87MG ATCC
# U-87 MG [6] = experiment: Inhibition of Akt expression in human U-87 MG cells at 1 uM by Western blotting analysis; assay type: cell-based
# U-87 MG [7] = experiment: Inhibition of Akt phosphorylation at Ser473 in human U-87 MG cells at 1 to 5 uM by Western blotting analysis; assay type: cell-based; conditions: dose 1-5 µM
# U-87 MG [8] = experiment: Inhibition of Akt expression in human U-87 MG cells at 5 uM by Western blotting analysis; assay type: cell-based
# Chain of Phosphatidylinositol 4,5-bisphosphate 3-kinase catalytic subunit beta isoform (P42338 whole entry, canonical isoform): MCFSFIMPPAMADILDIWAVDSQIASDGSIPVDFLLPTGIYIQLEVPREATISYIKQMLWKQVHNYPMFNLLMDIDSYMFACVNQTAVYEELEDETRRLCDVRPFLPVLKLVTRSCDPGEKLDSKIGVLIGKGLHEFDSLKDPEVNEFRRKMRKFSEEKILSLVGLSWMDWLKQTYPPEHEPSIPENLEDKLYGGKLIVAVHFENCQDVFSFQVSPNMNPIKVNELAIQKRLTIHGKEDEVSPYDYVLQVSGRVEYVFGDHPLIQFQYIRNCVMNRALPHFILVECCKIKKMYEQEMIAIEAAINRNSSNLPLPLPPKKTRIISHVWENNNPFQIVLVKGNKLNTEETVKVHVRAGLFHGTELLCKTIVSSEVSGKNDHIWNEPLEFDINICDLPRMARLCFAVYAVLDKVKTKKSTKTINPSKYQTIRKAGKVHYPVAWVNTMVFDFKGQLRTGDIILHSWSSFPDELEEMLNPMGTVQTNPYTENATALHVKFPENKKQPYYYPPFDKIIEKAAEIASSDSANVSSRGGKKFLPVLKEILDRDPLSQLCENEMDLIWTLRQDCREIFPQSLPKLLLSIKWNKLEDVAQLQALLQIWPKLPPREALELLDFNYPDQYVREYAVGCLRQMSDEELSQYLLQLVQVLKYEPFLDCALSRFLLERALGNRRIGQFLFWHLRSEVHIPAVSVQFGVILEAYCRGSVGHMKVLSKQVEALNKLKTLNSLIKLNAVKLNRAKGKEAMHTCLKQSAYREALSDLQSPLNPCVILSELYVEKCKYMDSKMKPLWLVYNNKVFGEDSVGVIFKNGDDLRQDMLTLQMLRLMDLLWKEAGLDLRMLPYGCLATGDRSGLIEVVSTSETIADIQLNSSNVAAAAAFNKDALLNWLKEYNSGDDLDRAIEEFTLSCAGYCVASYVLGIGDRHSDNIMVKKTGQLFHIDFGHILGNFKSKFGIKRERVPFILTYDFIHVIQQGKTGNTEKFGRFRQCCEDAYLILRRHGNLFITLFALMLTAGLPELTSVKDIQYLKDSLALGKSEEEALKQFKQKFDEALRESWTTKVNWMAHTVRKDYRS
# Chain of Phosphatidylinositol 4,5-bisphosphate 3-kinase catalytic subunit gamma isoform (P48736 whole entry, canonical isoform): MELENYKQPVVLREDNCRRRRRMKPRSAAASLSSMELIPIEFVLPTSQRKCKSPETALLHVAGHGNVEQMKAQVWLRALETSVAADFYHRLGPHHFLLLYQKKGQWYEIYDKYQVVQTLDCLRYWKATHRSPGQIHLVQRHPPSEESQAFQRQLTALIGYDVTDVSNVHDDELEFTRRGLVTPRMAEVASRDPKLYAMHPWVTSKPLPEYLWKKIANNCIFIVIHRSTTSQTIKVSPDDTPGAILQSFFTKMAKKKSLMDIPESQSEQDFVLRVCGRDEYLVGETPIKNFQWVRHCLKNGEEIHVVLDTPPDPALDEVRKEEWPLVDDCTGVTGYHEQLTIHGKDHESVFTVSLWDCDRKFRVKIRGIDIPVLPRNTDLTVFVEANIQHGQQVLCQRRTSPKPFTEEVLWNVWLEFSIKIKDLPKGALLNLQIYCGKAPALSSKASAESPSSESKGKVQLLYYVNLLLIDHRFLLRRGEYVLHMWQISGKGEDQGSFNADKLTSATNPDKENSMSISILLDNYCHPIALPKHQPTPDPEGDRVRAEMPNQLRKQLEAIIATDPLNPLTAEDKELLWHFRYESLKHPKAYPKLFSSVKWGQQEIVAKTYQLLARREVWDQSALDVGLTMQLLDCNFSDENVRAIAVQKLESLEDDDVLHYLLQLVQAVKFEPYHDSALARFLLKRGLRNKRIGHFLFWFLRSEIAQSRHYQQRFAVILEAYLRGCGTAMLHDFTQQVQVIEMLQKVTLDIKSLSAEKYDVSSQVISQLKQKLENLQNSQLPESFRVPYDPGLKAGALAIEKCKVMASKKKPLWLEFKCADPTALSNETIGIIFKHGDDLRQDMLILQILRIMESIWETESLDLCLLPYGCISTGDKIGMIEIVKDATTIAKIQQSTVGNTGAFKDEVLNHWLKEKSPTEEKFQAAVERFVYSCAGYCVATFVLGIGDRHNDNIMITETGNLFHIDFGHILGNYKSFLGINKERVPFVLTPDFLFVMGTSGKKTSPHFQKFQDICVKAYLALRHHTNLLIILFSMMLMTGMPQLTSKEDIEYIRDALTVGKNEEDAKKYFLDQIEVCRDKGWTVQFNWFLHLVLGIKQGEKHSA
# Chain of Phosphatidylinositol 4,5-bisphosphate 3-kinase catalytic subunit alpha isoform (P42336 whole entry, canonical isoform): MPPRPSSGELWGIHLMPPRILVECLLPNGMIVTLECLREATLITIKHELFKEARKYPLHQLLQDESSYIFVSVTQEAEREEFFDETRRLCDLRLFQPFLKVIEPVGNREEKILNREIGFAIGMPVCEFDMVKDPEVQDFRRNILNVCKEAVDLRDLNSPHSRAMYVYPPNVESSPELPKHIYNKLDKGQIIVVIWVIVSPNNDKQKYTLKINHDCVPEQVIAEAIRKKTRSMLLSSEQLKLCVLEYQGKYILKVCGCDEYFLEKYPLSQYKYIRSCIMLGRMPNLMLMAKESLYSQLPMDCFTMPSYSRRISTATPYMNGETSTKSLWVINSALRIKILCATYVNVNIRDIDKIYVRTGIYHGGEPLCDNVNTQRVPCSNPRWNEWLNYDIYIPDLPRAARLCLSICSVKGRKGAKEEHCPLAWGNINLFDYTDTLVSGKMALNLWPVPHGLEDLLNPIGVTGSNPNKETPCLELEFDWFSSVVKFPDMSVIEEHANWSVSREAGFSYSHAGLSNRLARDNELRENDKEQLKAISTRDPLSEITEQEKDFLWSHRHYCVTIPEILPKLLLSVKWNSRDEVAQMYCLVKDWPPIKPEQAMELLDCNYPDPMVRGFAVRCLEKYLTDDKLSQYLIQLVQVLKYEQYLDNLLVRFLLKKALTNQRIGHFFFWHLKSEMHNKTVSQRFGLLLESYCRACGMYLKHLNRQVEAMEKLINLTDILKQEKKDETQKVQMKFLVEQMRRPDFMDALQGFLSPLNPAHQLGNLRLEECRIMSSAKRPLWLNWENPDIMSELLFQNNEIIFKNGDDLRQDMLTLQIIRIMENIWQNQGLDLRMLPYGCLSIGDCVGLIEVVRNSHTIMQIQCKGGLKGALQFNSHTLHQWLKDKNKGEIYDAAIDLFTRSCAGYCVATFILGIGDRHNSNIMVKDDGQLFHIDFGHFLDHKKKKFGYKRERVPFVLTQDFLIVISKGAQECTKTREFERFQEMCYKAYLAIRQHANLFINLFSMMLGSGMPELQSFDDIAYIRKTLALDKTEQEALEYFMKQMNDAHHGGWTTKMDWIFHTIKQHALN
Structure (SMILES),IC50 [1],IC50 [2],IC50 [3],IC50 [4],other results
O=S(=O)(Nc1cc(-c2ccc3nncc(-c4ccncc4)c3c2)cnc1Cl)c1ccccc1,0.71 nM,1.7 nM,2.25 nM,0.36 nM,
O=S(=O)(Nc1cc(-c2ccc3nncc(N4CCNCC4)c3c2)cnc1Cl)c1ccccc1,,,,1.58 nM,IC50 (A549): > 50000 nM; IC50 (HeLa): > 16600 nM; IC50 (MCF7): > 50000 nM; IC50 (HL-60): > 16600 nM; IC50 (HepG2): > 50000 nM; IC50 (U-87 MG [5]): 589 nM
Oc1cccc(-c2nc(N3CCOCC3)c3oc4ncccc4c3n2)c1 [PI-103],,,,,IC50 (HeLa): 230 nM; IC50 (HL-60): 65.6 nM
COc1ncc(-c2ccc3nncc(Cl)c3c2)cc1NS(=O)(=O)c1ccccc1,,,,4.42 nM,
O=S(=O)(Nc1cc(-c2ccc3nnccc3c2)cnc1Cl)c1ccccc1,,,,19.4 nM,
C[C@H](Nc1cnnc2ccc(-c3cnc(Cl)c(NS(=O)(=O)c4ccccc4)c3)cc12)c1ccccc1,,,,27 nM,
O=S(=O)(Nc1cc(-c2ccc3nncc(O)c3c2)cnc1Cl)c1ccccc1,,,,833 nM,
COc1cnnc2ccc(-c3cnc(Cl)c(NS(=O)(=O)c4ccccc4)c3)cc12,,,,1.1 nM,
C[C@@H](Nc1cnnc2ccc(-c3cnc(Cl)c(NS(=O)(=O)c4ccccc4)c3)cc12)c1ccccc1,,,,5.46 nM,
CC(=O)Nc1ccc(Nc2cnnc3ccc(-c4cnc(Cl)c(NS(=O)(=O)c5ccccc5)c4)cc23)cc1,,,,3.3 nM,
COc1ncc(-c2ccc3nncc(N4CCOCC4)c3c2)cc1NS(=O)(=O)c1ccccc1,,,,4.08 nM,
COc1ccc(CNc2cnnc3ccc(-c4cnc(Cl)c(NS(=O)(=O)c5ccccc5)c4)cc23)cc1,,,,1.02 nM,
CCOc1cnnc2ccc(-c3cnc(Cl)c(NS(=O)(=O)c4ccccc4)c3)cc12,1.78 nM,5.61 nM,4.73 nM,0.4 nM,
O=S(=O)(Nc1cc(-c2ccc3nncc(-c4ccccc4)c3c2)cnc1Cl)c1ccccc1,,,,2.91 nM,
COc1ncc(-c2ccc3nncc(Nc4ccc(NC(C)=O)cc4)c3c2)cc1NS(=O)(=O)c1ccccc1,,,,8.57 nM,
CC1CCN(c2cnnc3ccc(-c4cnc(Cl)c(NS(=O)(=O)c5ccccc5)c4)cc23)CC1,1.61 nM,5.33 nM,3.66 nM,0.32 nM,
O=S(=O)(Nc1cc(-c2ccc3nncc(Nc4ccccc4)c3c2)cnc1Cl)c1ccccc1,,,,4.47 nM,
O=S(=O)(Nc1cc(-c2ccc3nncc(N4CCCCC4)c3c2)cnc1Cl)c1ccccc1,1.33 nM,4.6 nM,3.19 nM,0.67 nM,
O=S(=O)(Nc1cc(-c2ccc3nncc(-c4ccc(N5CCOCC5)nc4)c3c2)cnc1Cl)c1ccccc1,0.709 nM,1.54 nM,1.89 nM,0.28 nM,
O=S(=O)(Nc1cc(-c2ccc3nncc(-c4cnc(N5CCOCC5)nc4)c3c2)cnc1Cl)c1ccccc1,0.936 nM,4.72 nM,4.42 nM,0.65 nM,IC50 (A549): 10100 nM; inhibition (U-87 MG [6]): inactive; IC50 (HeLa): 2040 nM; inhibition (U-87 MG [7]): Active; IC50 (MCF7): 31100 nM; IC50 (HL-60): 1140 nM; IC50 (HepG2): > 16600 nM; IC50 (U-87 MG [5]): 264 nM; inhibition (U-87 MG [8]): Active
COc1ncc(-c2ccc3nncc(Nc4ccccc4)c3c2)cc1NS(=O)(=O)c1ccccc1,,,,30.3 nM,
O=S(=O)(Nc1cc(-c2ccc3nncc(N4CCOCC4)c3c2)cnc1Cl)c1ccccc1,1.55 nM,14.5 nM,4.36 nM,0.85 nM,IC50 (A549): > 16600 nM; IC50 (HeLa): 7700 nM; IC50 (MCF7): 13100 nM; IC50 (HL-60): > 16600 nM; IC50 (HepG2): 18300 nM; IC50 (U-87 MG [5]): 2020 nM
O=S(=O)(Nc1cc(-c2ccc3nncc(-c4ccc(N5CCOCC5)cc4)c3c2)cnc1Cl)c1ccccc1,0.711 nM,3.04 nM,2.29 nM,0.4 nM,
CCCCCCOc1cnnc2ccc(-c3cnc(Cl)c(NS(=O)(=O)c4ccccc4)c3)cc12,,,,215 nM,
O=S(=O)(Nc1cc(-c2ccc3nncc(Cl)c3c2)cnc1Cl)c1ccccc1,,,,0.55 nM,
O=S(=O)(Nc1cc(-c2ccc3nncc(N4CCCC4)c3c2)cnc1Cl)c1ccccc1,2.64 nM,5.41 nM,5.97 nM,0.87 nM,
O=S(=O)(Nc1cc(-c2ccc3nncc(-n4ccnc4)c3c2)cnc1Cl)c1ccccc1,1.37 nM,2.39 nM,4.02 nM,0.21 nM,IC50 (A549): > 50000 nM; IC50 (HeLa): > 50000 nM; IC50 (MCF7): 39900 nM; IC50 (HL-60): 2400 nM; IC50 (HepG2): > 16600 nM; IC50 (U-87 MG [5]): 16700 nM
